# From US20120010178A1, “METHODS AND COMPOUNDS FOR TREATMENT OF NEURODEGENERATIVE DISORDERS” (PRESIDENT AND FELLOWS OF HARVARD COLLEGE, priority 2008, published 2012)
# “Also recorded” adds a separate entry of the source.
# Columns and labels:
# SMN [1] = test: SMN immunofluorescence quantification (cytoplasm, nucleus, GEMs) in fibroblasts from SMA patients; assay type: cell-based, human; conditions: for levels of cytoplasmic and nuclear SMN (in words): substance alone
# Summary of the method: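 SMN immunostained and imaged by automated confocal microscopy; per-cell cytoplasmic and nuclear SMN intensity and GEM number and intensity quantified. PFA fixation used for screening.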
# SMN [2] = test: SMN levels in mouse (ES-cell derived) motor neurons; assay type: cell-based; conditions: for SMN levels in motor neurons (in words): mouse motor neurons
# Experimental: Mouse HB9-GFP derived SMN deficient motor neuron cells were incubated for 2 days with compounds from libraries and collections.
# Motor neurons were produced from mouse ES-cells expressing cherry fluorescent protein (CFP) under the control of the motor neuron-selective Hb9 promoter, as previously described (Wichterle et al., 2002).
# GFP expressing motor neurons were derived from mouse ES cells as described below. After growing for approximately 1 week, motor neurons were treated with allsterpaullone. Two days after treatment with allsterpaullone, cells were fixed and stained with SMN antibody or GFP antibody.
# mES cells were differentiated into motor neurons according to methods adapted from Wichterle et. al., Cell (2002), 110:385-397. Briefly, mES cells were grown to 70-80% confluence in 10-cm plates (Falcon) in ES cell medium. To form embryoid bodies, cells were washed once with PBS to eliminate mES medium and then incubated with 1 ml of 0.25% trypsin (GIBCO) for 5-10 min at 21-25° C. (RT). Cells were then resuspended in 10 ml of DM1 medium (DMEM-F12, GIBCO), 10% knockout serum (GIBCO), penicillin, streptomycin, glutamine (GIBCO) and 2-mercaptoethanol (GIBCO), counted and plated at a concentration of 200,000 cells per ml in Petri dishes (Falcon). Two days later, embryoid bodies were collected and resuspended into new Petri dishes containing DM1 medium supplemented with RAc (100 nM; stock 1 mM in DMSO, Sigma) and HhAg (100 nM). […] treatment was repeated with the same concentration of RAc (100 nM) and high concentration of HhAg (1 μM). On day 6, the embryoid bodies were collected in a 15-ml Falcon tube, and incubated in Earle's balanced salt solution with 20 units of Papain and 1,000 units of DNase I (Worthington Biochemical) for 10 min at 37° C. The mixture was then triturated with a 10-ml pipette and centrifugated for 5 min at 800 rpm. The resulting cell pellet was washed with PBS and resuspended in F12 medium (F12 medium, GIBCO) with 2% fetal bovine serum (GIBCO), B-27 supplement (GIBCO), (GDNF and BDNF, 20 ng ml^−1, R&D Systems). The cells were counted and plated on poly-ornithine coated 96-well plates (VWR).
# [3] = molecular target: T1, GSK3b (Ser-9 phosphorylation) (Homo sapiens, UniProt P49841); test: p-GSK(Ser9) phosphorylation in patient fibroblasts (western blot / immunofluorescence); assay type: cell-based; conditions: patient fibroblasts
# T1 construct: endogenous in cells; host or cells: SMA patient fibroblasts (GM09677), starved in 0.5% FBS before treatment
# T1 sequence (P49841 whole entry): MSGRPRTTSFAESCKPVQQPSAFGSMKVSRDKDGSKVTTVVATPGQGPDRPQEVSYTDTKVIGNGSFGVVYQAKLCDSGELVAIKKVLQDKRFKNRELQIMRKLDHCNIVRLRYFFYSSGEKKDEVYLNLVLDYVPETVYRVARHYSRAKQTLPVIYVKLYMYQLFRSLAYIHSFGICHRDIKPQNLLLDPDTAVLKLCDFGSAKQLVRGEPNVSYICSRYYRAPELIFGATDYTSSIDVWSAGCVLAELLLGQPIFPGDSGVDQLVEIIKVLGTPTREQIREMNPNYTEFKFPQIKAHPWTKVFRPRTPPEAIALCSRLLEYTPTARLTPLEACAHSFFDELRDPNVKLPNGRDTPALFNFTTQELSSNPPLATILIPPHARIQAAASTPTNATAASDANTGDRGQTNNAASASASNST
# Experimental: Compounds were stored at appropriate temperature and dissolved accordingly to the manufacturers (Tocris, Enzo, EMD and Sigma-Aldrich) in DMSO (Sigma-Aldrich), unless stated otherwise (Monensin Na in EtOH, DMPQ in water). Growth factors and PDGF neutralizing antibodies (R&D Systems) were reconstituted with buffers recommended by the supplier. For generation of the dose curves, 1×10^3 fibroblasts were plated on to 96-well Greiner Senso plates (VWR) and treated with compounds on the second day then fixed and stained at the indicated time points. For GSK inhibitors and performing p-GSK3b(Ser9) detection, two days after plating growth media containing 5% FBS was replaced to the media with FBS reduced down to 0.5%, to starve cells for 72 hours. Addition of the GSK inhibitors was done in 5% FBS enriched media. As previously described, starvation increases levels of constitutively activate GSK3b kinase, allowing to achieve a more dramatic inhibitory effect when GSK inhibitors are added together with growth factors that are also known to inhibit GSK by Ser-9 phosphorylation. […] For all compounds and growth factors control wells received solvent in amount equivalent to the highest concentration of the compound in a dose curve. For PDGF inhibitory studies, cells were pre-treated with kinase inhibitors for 2 hours and PDGF was added with a fresh kinase inhibitor solution and incubated for an additional 3 days.
Molecule,levels of cytoplasmic and nuclear SMN (in words) (SMN [1]; SMA patient fibroblasts),"levels of cytoplasmic and nuclear SMN (in words) (SMN [1]; SMA patient fibroblasts, listed as alsterpaullone)","effect on SMN level (SMN [1]; fed cells (10% serum, not starved))",effect on SMN level (SMN [1]; pre-starved cells that received fresh media with 10% serum along with compound),effect on SMN level (SMN [1]; pre/post-starved cells (0.5% serum)),Gem intensity in neurons (in words) (SMN [2]; ES-cell derived neurons),SMN levels in motor neurons (in words) (SMN [2]),SMN levels in motor neurons (in words) (SMN [2]; listed as allsterpaullone),p-GSK-Ser9 phosphorylation (in words) [3],fold increase in cytoplasmic SMN (SMN [1]; SMA patient fibroblasts),fold increase in nuclear SMN (SMN [1]; SMA patient fibroblasts),"levels of cytoplasmic and nuclear SMN (in words) (SMN [1]; SMA patient fibroblasts, listed as platelet derived PDGF)","Avg. SMN fold increase (SMN [1]; human PDGF isoforms, SMA patient fibroblasts)"
O=C1Cc2c([nH]c3ccc([N+](=O)[O-])cc23)-c2ccccc2N1 [Alsterpaullone],increase SMN levels; also recorded: Most active compounds,able to elevate SMN in patient fibroblasts,weak effect,1.9 fold,1.6 fold,increases Gem intensity in neurons; also recorded: main increase was observed in Gem Intensity parameter,increases level of SMN in neurons; also recorded: able to elevate Smn,Increased SMN levels,increase in a dose dependent manner,–,–,–,–
PDGF,increase in SMN levels,–,–,–,–,–,no effect on elevating SMN,–,phosphorylates GSK313 in a dose-dependent manner,2.3 fold,1.95 fold,strongest activator,2-2.3 fold
